# Source: a melting point compilation (Tetko et al.; mined from patent text by program, amines drawn as free bases though some values may be those of a salt)
row,Structure (SMILES),melting point [°C]
1,COc1ccc(CS[C@@H]2C[C@@H](C(=O)OCc3ccccc3)N(S(=O)(=O)c3ccc4ccccc4c3)C2)cc1,90 to 91
2,Cc1cc2c(cc1Br)C(O)(c1ccccn1)CC(C)(C)CO2 (stereo unspecified),147
3,COC(=O)C1C2C=CC(C2)C1N(C)S(=O)(=O)c1ccc(OCc2ccccc2)cc1 (stereo unspecified),103 to 104
4,CC(C)C[C@H](NCc1ccc(C(C)(C)C)cc1)C(=O)N1CCN(C(c2ccc(F)cc2)c2ccc(F)cc2)CC1,57 to 62
5,CC(c1ccc(NC=O)c(N)c1)n1ccnc1 (stereo unspecified),212
6,COc1cc2c(=O)n(CCN(C)C)c3c(cnc4cccc([N+](=O)[O-])c43)c2cc1OC,194 to 195
7,Nc1cc(C(=O)O)ccc1-c1nc(-c2ccc(C(F)(F)F)cc2)no1,> 300
8,CN1CCN(c2cccc3c(S(=O)(=O)c4ccccc4)c[nH]c23)CC1,160 to 162
9,COc1cc2c(=O)c3c(Cl)ccc([N+](=O)[O-])c3[nH]c2cc1Cl,284 to 285
10,O=C(O)c1c[nH]c(Sc2cc(Cl)c(Cl)cc2Cl)c1,210 to 215
11,CN1C(=O)CCN(c2ccc(Cl)cc2Cl)C1=O,154 to 157
12,CC(=O)Oc1ccc(-c2ccc3cc(C(=O)O)ccc3c2)cc1,256 to 258
13,CC(C)Cc1nc2ccc(Br)cc2c(-c2ccccc2)c1CN1C(=O)c2ccccc2C1=O,164 to 165
14,COc1cc(Cn2cnc3cccnc32)ccc1C(=O)N(C(C)C)C1CCCCC1,96 to 98
15,CC(C)(C)OC(=O)N1CCN(c2ncnc3c2cnn3Cc2cccc(Br)n2)CC1,126 to 128
16,CCCCCCCN(C[C@H]1CCC[C@H](CN(CCCCCCC)C(=O)Nc2ccc(N(C)C)cc2)C1)C(=O)Nc1ccc(N(C)C)cc1 (relative stereo),121 to 126
17,CN(C)CCCOc1ccc(-c2ccc(C(=O)O)cc2)cc1-c1ccc2c(c1)C(C)(C)CCC2(C)C,199
18,CCCc1nc(-c2cccnc2)cnc1Cl,207 to 209
19,Cc1cc([N+](=O)[O-])cc(C)c1Oc1ccc([N+](=O)[O-])c(Nc2ccc(C#N)cc2)n1,250 to 252
20,O=c1[nH]c2c([nH]c1=O)C1=C(CCC(n3cccc3)=C1)CC2,> 250
21,CCSc1sc(C(=O)N2CCCC2)c2c1C(=O)CC(C)(C)C2,129 to 132
22,CC(O)CCCCCCCC(O)c1ccc(OCc2ccccc2)c(OCc2ccccc2)c1 (stereo unspecified),66
23,Nc1nc2[nH]c(CCCc3csc(C(=O)O)c3)cc2c(=O)[nH]1,181 to 182
24,C=Cc1cccc(OC)c1[N+](=O)[O-],55 to 56

row,Structure (SMILES),melting point [°C]
1,C[C@]1(CN2CCN(C(=O)c3ccc(Cl)cc3)CC2)Cn2cc([N+](=O)[O-])nc2O1,173 to 174
2,COc1c(N2C[C@H](CF)[C@](C)(N)C2)c(F)cc2c(=O)c(C(=O)O)cn([C@@H]3C[C@@H]3F)c12,187 to 189
3,CCC(c1ccccc1)c1c(O)c2c(oc1=O)CCC2 (stereo unspecified),183 to 186
4,Cc1nc(Cl)c2c(n1)c(C)nn2CC(F)(F)F,70
5,CC(Sc1cc2cc(O)ccc2[nH]1)(C(=O)O)c1ccccc1 (stereo unspecified),180 to 182
6,CS(=O)(=O)c1ccc(C(CC2CCCC2)C(=O)Nc2cnc(CC#N)cn2)cc1Cl (stereo unspecified),79 to 82
7,CCCCCCCCCOC(=O)Oc1ccc(-c2ccc(C#N)cc2)cc1,53 to 53.1
8,O=C(O)Cc1cccc(Oc2ccccc2Cl)c1[N+](=O)[O-],162 to 164
9,CON=C(C(=O)OC)c1ccccc1COc1ccc2c(c1)OCC2=NOC,108 to 110
10,OCc1nnc2n1-c1sc(Cl)cc1C(c1ccccc1Cl)=NC2,219 to 221
11,CCOc1ccccc1C(=O)Nc1ccc2oc(Nc3ccc(CC)cc3)nc2c1,182
12,CC(C)[C@H](NC(=O)OCc1ccccc1)[C@H](O)C(F)(F)F,103 to 104
13,CCC1SC(=O)N(Cc2ccc(NC(=O)C(F)(F)F)cc2)N=C1c1ccc(OC)c(OC)c1 (stereo unspecified),124
14,Cc1cc(-n2ccnc2)c2cccc(OCc3c(Cl)ccc(-n4cccc4CNC(=O)C=Cc4ccc(C(=O)O)cc4)c3Cl)c2n1,166 to 170
15,c1cnc2[nH]cc(CN3CCc4ccc(-c5ccsc5)cc4C3)c2c1,228 to 230
16,O=c1[nH]c2cc(Cl)ccc2c(O)c1-c1cccc(C#Cc2ccccc2)c1,297 to 300
17,COc1cc(Nc2nc(-c3ccccc3)cs2)ccc1-c1cnco1,193 to 195
18,O=C(c1cc(-c2ccc(F)cc2)c(-c2ccc(F)cc2)s1)C(F)(F)F,120 to 122
19,O=[N+]([O-])c1ccc(OC(c2c(Cl)cccc2Cl)C(F)(F)F)cc1 (stereo unspecified),108
20,CCCOC(Cc1ccc(OCc2nc(C(C)(C)C)oc2C)c2ccccc12)C(=O)O (stereo unspecified),169 to 170
21,COC(=O)c1sc(-c2ccc(F)cc2)cc1-c1nnn(C)n1,132
22,N#Cc1c(N2CCc3ccccc3CC2)nc(CSc2ccccc2)[nH]c1=O,189 to 194
23,CC(C)Cn1c(=O)n(C)c(=O)c2c(C/C=C/CC(=O)O)n(Cc3cccc4ccccc34)cc21,176 to 180
24,N#CNC(=N)NCCCN1CCC(c2noc3cc(F)ccc23)CC1,178 to 181

row,Structure (SMILES),melting point [°C]
1,CCOC(=O)C1=C(C)Nc2nc(N(C)C)nc(N(C)C)c2C1c1cccc([N+](=O)[O-])c1 (stereo unspecified),149
2,COc1c(C)c(C)c(OC)c(CBr)c1C,71 to 72
3,COc1cc2c(cc1OC(C)C)C(=O)C1c3c(cc(OC(C)C)c(OC)c3-2)CCN1C (stereo unspecified),82 to 84
4,CCCc1c(OCCCOc2ccc(-c3c[nH]c(SCc4ccccc4)n3)c(OC)c2CCC)ccc2c1OC(C(=O)O)CC2 (stereo unspecified),92 to 97
5,O=C(O)c1cn(C2CC2)c2c(Br)c(F)c(F)cc2c1=O,224 to 226
6,COC(=O)c1cc(C(=O)N[C@@H](Cc2ccccc2)[C@H]2CN(C3(c4cccc(C(F)(F)F)c4)CC3)C(=O)O2)n2c1CN(C(=O)OC(C)(C)C)CC2,106
7,CC1CC(=O)NN=C1c1ccc(N2CCC(CN)CC2)c([N+](=O)[O-])c1 (stereo unspecified),131 to 132
8,CC(C)(C)n1nnc(-c2ccc(CCC(=O)O)cc2)n1,88 to 90
9,CCCCC(=O)Nc1c(C(=O)OC)cc(Cl)cc1[N+](=O)[O-],84 to 85
10,NC(=O)N(O)CCOCc1ccsc1,99 to 100
11,"CC(C)Cc1ccc(C2(C)Oc3ccc(C(=O)O)cc3O2)cc1 (single isomer, unassigned; (-))",120 to 122
12,CC1(CCN2C(=O)c3cccc([N+](=O)[O-])c3C2=O)OCCO1,90
13,CCOC(=O)C(Cl)=Cc1cc(N(C(N)=S)c2cscc2C(=O)OC)ccc1Cl,158 to 160
14,O=C1c2ccccc2C(=O)N1c1cccc(CBr)n1,169 to 170
15,Cc1cc(C(O)(C(F)(F)F)C(F)(F)F)cc(C)c1OCC(=O)NCc1ccccc1,142 to 144
16,CCOC(=O)Nc1ccc(-n2ccc(C#N)c2)c(F)c1,188 to 190
17,COc1ccc(-n2cnc3ccc(C(=O)NN)cc32)cc1,196 to 197
18,CCNC(=O)c1c(Cl)ccc(N)c1[Si](C)(C)C,147 to 149
19,CCCc1cccc2sc(Sc3ccc4c(c3)CC[C@H]3N(C)C(=O)CC[C@]43C)nc12,109 to 111
20,N#CCc1cc(Br)c(C(=O)c2ccc(Cl)cc2)[nH]1,185 to 186
21,CC(C)N(CCC(CCN(C(C)C)C(C)C)(C(N)=O)c1c(Cl)cccc1Cl)C(C)C,168 to 170
22,CCCc1nc2c(N)nc3ccc(-c4ccccc4CO)cc3c2s1,194 to 196
23,O=C(Nc1cc(C(F)(F)F)ccc1N1CCCCC1)c1ccncc1,96 to 98
24,CN(C)c1ccccc1SCc1noc(-c2ccccc2)n1,100

row,Structure (SMILES),melting point [°C]
1,Nc1ncnc2c1c(Br)cn2COCCO,163 to 164
2,O=Cc1c2ccccc2c(Cl)c2ccc(Cl)cc12,176
3,CCCc1nc2c(N)nc3c(c2n1CCCC(=O)N1CCOCC1)CCCC3,181 to 183
4,Nc1nc(N)nc(-c2ccc(S(=O)(=O)N3CCCCC3)cc2)n1,> 260
5,Cn1c(O)nc2cc3c(cc21)C(C)(C)C(=O)N3,364 to 367
6,COc1ccc2c(c1)CCc1ccc(-c3ccccc3)cc1C21N=C(N)N(C)C1=O (stereo unspecified),167 to 171
7,CS(=O)(=O)c1ccc(/C(=C2\CCSC2=O)c2ccc(Cl)cc2)cc1,183
8,CC(=O)N1CCc2c([nH]c3ccccc23)C1CCCCl (stereo unspecified),166 to 168
9,Cc1nn(C(=O)Oc2ccccc2)c(=O)n1N,175
10,Cc1cc(C)n2nc(NS(=O)(=O)c3ccccc3[N+](=O)[O-])nc2n1,255 to 256
11,COc1ccc(Cc2nc3cccc(NCc4ncc[nH]4)c3o2)cc1OC1CCCC1,179 to 180
12,CCCNc1c(NCCCOc2cccc(CN3CCCCC3)c2)c(=O)c1=O,158 to 160
13,CC1CN(Cc2ccccc2)C(=O)C(=C2SC=CS2)C1=O (stereo unspecified),168 to 170
14,CC(C)(C)c1ccc(-c2nc(COCCc3cccc(NS(=O)(=O)C(F)(F)F)c3)cs2)cc1,110 to 112
15,O=C(NC/C=C\COc1cc(CN2CCCCC2)ccn1)NC1CC1,102 to 104
16,Cc1ccc(C2=C(c3ccc(S(C)(=O)=O)cc3)CCC2)cc1,118
17,CCOCc1nc2c(N)nc3cc(-c4cccnc4)ccc3c2n1Cc1ccc(CNC(=O)OC(C)(C)C)cc1,196 to 197
18,CCCCOC(=O)Cc1cc(O)c(C)cc1O,113
19,CCCc1nc(N(C)c2ccccc2)n2ncc(C(=O)c3ccccc3Cl)c2n1,149 to 151
20,COc1ccc(N2CCN(S(=O)(=O)c3cccc(/C=C/C(=O)NO)c3)CC2)cc1,203
21,COC(=O)/C=C/c1nc(C=O)ccc1OC,132 to 134
22,CCCNS(=O)(=O)Nc1ncccc1C(=O)OC,208 to 210
23,COc1cc2c3cc(OC)c(OC)cc3n(C(=O)c3ccccc3)c2cc1OC,181 to 182
24,Cc1cc2cc(CN3CCCCCC3)cnc2cc1NC(=O)c1ccc(-c2ccccc2)cc1F,151
